In PMC7899671 (eLife, 2021):

Legend:
[1] = molecular target: T1, α1L9'T/K278Aβ2γ2L receptors (L9'T/K278A) (Rattus norvegicus, UniProt P18508+P62813+P63138, INS375LLRMFSFK/K305A/L290T); assay type: cell-based
T1 construct: expressed in transfected cells; host or cells: Xenopus laevis oocytes injected with mRNA (α:β:γ 1:1:10)
Description: (§1) We use the gain of function mutation α1L9'T that confers spontaneous channel gating in the absence of agonist that can be further modulated by BZDs ([Scheller and Forman, 2002]; [Chang and Weiss, 1999]). The primary purpose for this mutation is to enable macroscopic current responses to report on pore gating by a BZD in the absence of agonist. […] We restricted the scan primarily to the flexible loop between helical regions associated with M2 and M3 from α1L276-T283 (Figure 1; Figure 1—figure supplement 1). Two of these positions, α1A280 and α1A282, are natively alanine and were not mutated. Briefly, Xenopus laevis oocytes were co-injected with mRNA for α, β, and γ subunits in a 1:1:10 ratio, and current responses to microfluidic application of ligands were recorded in two-electrode voltage clamp. […] Current block by the pore blocker PTX was used to assess the amount of spontaneous activity and to correct for drift or rundown over the course of the experiment (see Figure 2—figure supplement 1).
(§2) BZD positive modulators alone evoke channel opening with extremely low probability ([Campo-Soria et al., 2006]), thus necessitating coapplication with an agonist to obtain robust currents from wild-type receptors ([Germann et al., 2019]). However, dissecting the effects of BZDs on either agonist binding or channel gating is severely challenged in the presence of an agonist because the two processes are intimately coupled ([Colquhoun, 1998]).
(§3) DNA for wild-type GABAAR rat α1, β2, and γ2L subunits were a gift from Dr. Cynthia Czajkowski. Single alanine substitutions were introduced throughout the α1M2–M3 linker from L276-T283 in addition to the gain of function α1L9'T pore mutation (rat α1L263T) (QuikChange II, […]). Mutations V279D and V279W were introduced similarly. Each construct was verified by forward and reverse sequencing of the entire gene. mRNA for each construct was generated (mMessage mMachine T7, Ambion) for expression in X. laevis oocytes (EcoCyte Bioscience, Austin, TX). Oocytes were injected with 27–54 ng of total mRNA for α, β, and γ subunits in a 1:1:10 ratio ([Boileau et al., 2002]) (Nanoject, Drummond Scientific). Oocytes were incubated in ND96 (in mM: 96 NaCl, 2 KCl, 1 MgCl2, 1.8 CaCl2, 5 HEPES, pH 7.2) with […] gentamicin at 18°C.
(§4) Currents from expressed channels 1–3 days post-injection were recorded in two-electrode voltage clamp (Dagan TEV-200, HEKA ITC and Patchmaster software). […] PTX was diluted from a 1 M stock solution in DMSO. […] Recorded currents were analyzed with custom scripts in MATLAB (Mathworks). Recordings of concentration–response relationships were bookended by pulses of PTX to correct for any drift or rundown during the experiment. Briefly, currents were baseline subtracted to correct for drift and then scaled by a linear fit to the peak of each PTX response to correct for rundown (Figure 2—figure supplement 1).

[2] = molecular target: T2, α1L9'T/L276Aβ2γ2L GABAA receptor (L9'T/L276A) (Rattus norvegicus, UniProt P18508+P62813+P63138, INS375LLRMFSFK/L290T/L303A); assay type: cell-based
T2 construct: expressed in transfected cells; host or cells: Xenopus laevis oocytes injected with mRNA (α:β:γ 1:1:10)
Description: as §1, §2, §3, §4

[3] = molecular target: T3, α1L9'T/P277Aβ2γ2L GABAA receptor (L9'T/P277A) (Rattus norvegicus, UniProt P18508+P62813+P63138, INS375LLRMFSFK/L290T/P304A); assay type: cell-based
T3 construct: expressed in transfected cells; host or cells: Xenopus laevis oocytes injected with mRNA (α:β:γ 1:1:10)
Description: as §1, §2, §3, §4

[4] = molecular target: T4, α1L9'T/T283Aβ2γ2L GABAA receptor (L9'T/T283A) (Rattus norvegicus, UniProt P18508+P62813+P63138, INS375LLRMFSFK/L290T/T310A); assay type: cell-based
T4 construct: expressed in transfected cells; host or cells: Xenopus laevis oocytes injected with mRNA (α:β:γ 1:1:10)
Description: as §1, §2, §3, §4

[5] = molecular target: T5, α1L9'T/V279Aβ2γ2L receptors (L9'T/V279A) (Rattus norvegicus, UniProt P18508+P62813+P63138, INS375LLRMFSFK/L290T/V306A); assay type: cell-based
T5 construct: expressed in transfected cells; host or cells: Xenopus laevis oocytes injected with mRNA (α:β:γ 1:1:10)
Description: as §1, §2, §3, §4

[6] = molecular target: T6, α1L9'T/Y281Aβ2γ2L GABAA receptor (L9'T/Y281A) (Rattus norvegicus, UniProt P18508+P62813+P63138, INS375LLRMFSFK/L290T/Y308A); assay type: cell-based
T6 construct: expressed in transfected cells; host or cells: Xenopus laevis oocytes injected with mRNA (α:β:γ 1:1:10)
Description: as §1, §2, §3, §4

[7] = molecular target: T7, α1L9'Tβ2γ2L GABAA receptor (L9'T) (Rattus norvegicus, UniProt P18508+P62813+P63138, INS375LLRMFSFK/L290T); assay type: cell-based
T7 construct: expressed in transfected cells; host or cells: Xenopus laevis oocytes injected with mRNA (α:β:γ 1:1:10)
Description: as §1, §2, §3, §4

[8] = molecular target: T8, α1L9'T/V279Dβ2γ2L GABAA receptor (L9'T/V279D) (Rattus norvegicus, UniProt P18508+P62813+P63138, INS375LLRMFSFK/L290T/V306D); assay type: cell-based
T8 construct: expressed in transfected cells; host or cells: Xenopus laevis oocytes injected with mRNA (α:β:γ 1:1:10)
Description: (§5) The M2–M3 linker has both high sequence and structural similarity in pLGICs. The valine at position 279 in the GABAAR α1 subunit is located near the center of the linker and is nearly always an aliphatic residue in different GABAAR subunits as well as in subunits of other pLGICs, with the exception of AChR, where it is a threonine. Even where sequences differ, structural models of the M2–M3 linker for multiple pLGICs are highly similar.
as §3, §4
(§6) where I is the peak current response, X is ligand concentration, EC50 is the concentration eliciting a half-maximal response, and n is the Hill slope.

[9] = molecular target: T9, α1L9'T/V279Wβ2γ2L GABAA receptor (L9'T/V279W) (Rattus norvegicus, UniProt P18508+P62813+P63138, INS375LLRMFSFK/L290T/V306W); assay type: cell-based
T9 construct: expressed in transfected cells; host or cells: Xenopus laevis oocytes injected with mRNA (α:β:γ 1:1:10)
Description: as §5, §3, §4, §6

[10] = molecular target: T10, α1V279Aβ2γ2L (V279A) receptors (Rattus norvegicus, UniProt P18508+P62813+P63138, INS375LLRMFSFK/V306A); assay: Two-electrode voltage clamp of receptors expressed in Xenopus laevis oocytes (V279A); assay type: cell-based
T10 construct: expressed in transfected cells; host or cells: Xenopus laevis oocytes injected with mRNA (α:β:γ 1:1:10)
Description: as §3, §4, §6

[11] = molecular target: α1L9'Tβ2γ2L, α1L9'T/V279Aβ2γ2L, and α1β2γ2L receptors; assay: MWC model of channel gating, global fit to estimated open probability; conditions: MWC model parameter, global optimisation
[12] = molecular target: T11, α1β2γ2L (wild-type) GABAA receptors (Rattus norvegicus, UniProt P18508+P62813+P63138, INS375LLRMFSFK); assay: Two-electrode voltage clamp of receptors expressed in Xenopus laevis oocytes (wild-type); assay type: cell-based; conditions: WT; 10 μM GABA + 1 μM FG-7142
T11 construct: expressed in transfected cells; host or cells: Xenopus laevis oocytes injected with mRNA (α:β:γ 1:1:10)
Description: as §3
as §4, with “Briefly, currents were baseline subtracted to correct for drift and then scaled by a linear fit to the peak of each PTX response to correct for rundown (Figure 2—figure supplement 1).” left out

T6 sequence (P62813 28-455 L290T/Y308A): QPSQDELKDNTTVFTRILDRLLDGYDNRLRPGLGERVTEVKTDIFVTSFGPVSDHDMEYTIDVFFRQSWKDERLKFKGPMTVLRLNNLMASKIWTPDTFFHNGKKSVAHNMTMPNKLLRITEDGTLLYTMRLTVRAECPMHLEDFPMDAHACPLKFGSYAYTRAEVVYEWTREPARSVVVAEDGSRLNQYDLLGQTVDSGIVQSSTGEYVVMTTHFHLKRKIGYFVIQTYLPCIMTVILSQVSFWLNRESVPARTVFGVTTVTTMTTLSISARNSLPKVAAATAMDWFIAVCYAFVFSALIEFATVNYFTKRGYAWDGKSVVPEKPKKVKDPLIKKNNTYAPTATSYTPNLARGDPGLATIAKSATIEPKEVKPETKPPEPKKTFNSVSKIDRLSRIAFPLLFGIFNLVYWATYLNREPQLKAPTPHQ
T6 sequence (P63138 25-474 limits assumed, stated change not applied): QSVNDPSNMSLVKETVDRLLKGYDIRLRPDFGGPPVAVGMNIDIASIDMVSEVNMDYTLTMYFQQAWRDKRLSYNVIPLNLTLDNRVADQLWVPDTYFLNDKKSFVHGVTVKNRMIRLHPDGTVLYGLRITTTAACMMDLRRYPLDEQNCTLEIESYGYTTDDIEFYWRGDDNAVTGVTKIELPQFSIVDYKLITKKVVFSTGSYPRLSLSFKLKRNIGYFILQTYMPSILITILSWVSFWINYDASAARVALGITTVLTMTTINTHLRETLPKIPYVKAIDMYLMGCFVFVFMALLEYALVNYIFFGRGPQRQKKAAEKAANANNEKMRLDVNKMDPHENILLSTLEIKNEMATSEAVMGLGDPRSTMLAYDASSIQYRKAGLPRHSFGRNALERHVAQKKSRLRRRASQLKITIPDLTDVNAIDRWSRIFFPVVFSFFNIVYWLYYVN
T6 sequence (P18508 with tags, fused parts or gaps INS375LLRMFSFK): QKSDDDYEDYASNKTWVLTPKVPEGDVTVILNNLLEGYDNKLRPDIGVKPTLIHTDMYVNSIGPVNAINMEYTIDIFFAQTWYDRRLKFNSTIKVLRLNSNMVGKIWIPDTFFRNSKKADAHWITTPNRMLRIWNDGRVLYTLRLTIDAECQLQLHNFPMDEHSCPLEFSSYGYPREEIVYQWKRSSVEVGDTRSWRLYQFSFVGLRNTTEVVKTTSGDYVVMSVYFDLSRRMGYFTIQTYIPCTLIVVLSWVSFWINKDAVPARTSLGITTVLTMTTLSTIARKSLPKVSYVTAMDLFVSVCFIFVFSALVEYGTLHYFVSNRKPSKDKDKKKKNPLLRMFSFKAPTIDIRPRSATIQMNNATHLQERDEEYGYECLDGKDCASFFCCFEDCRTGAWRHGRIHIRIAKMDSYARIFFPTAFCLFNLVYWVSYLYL
T8 sequence (P62813 28-455 L290T/V306D): as the sequence (P62813 28-455 L290T/Y308A) above, with V279D, A281Y counted along it
T8 sequence (P63138 25-474 limits assumed, stated change not applied): as the sequence (P63138 25-474 limits assumed, stated change not applied) above
T8 sequence (P18508 with tags, fused parts or gaps INS375LLRMFSFK): as the sequence (P18508 with tags, fused parts or gaps INS375LLRMFSFK) above
T5 sequence (P62813 28-455 L290T/V306A): as the sequence (P62813 28-455 L290T/Y308A) above, with V279A, A281Y counted along it
T5 sequence (P63138 25-474 limits assumed, stated change not applied): as the sequence (P63138 25-474 limits assumed, stated change not applied) above
T5 sequence (P18508 with tags, fused parts or gaps INS375LLRMFSFK): as the sequence (P18508 with tags, fused parts or gaps INS375LLRMFSFK) above
T1 sequence (P62813 28-455 L290T/K305A): as the sequence (P62813 28-455 L290T/Y308A) above, with K278A, A281Y counted along it
T1 sequence (P63138 25-474 limits assumed, stated change not applied): as the sequence (P63138 25-474 limits assumed, stated change not applied) above
T1 sequence (P18508 with tags, fused parts or gaps INS375LLRMFSFK): as the sequence (P18508 with tags, fused parts or gaps INS375LLRMFSFK) above
T10 sequence (P62813 28-455 V306A): as the sequence (P62813 28-455 L290T/Y308A) above, with T263L, V279A, A281Y counted along it
T10 sequence (P63138 25-474 limits assumed, stated change not applied): as the sequence (P63138 25-474 limits assumed, stated change not applied) above
T10 sequence (P18508 with tags, fused parts or gaps INS375LLRMFSFK): as the sequence (P18508 with tags, fused parts or gaps INS375LLRMFSFK) above
T2 sequence (P62813 28-455 L290T/L303A): as the sequence (P62813 28-455 L290T/Y308A) above, with L276A, A281Y counted along it
T2 sequence (P63138 25-474 limits assumed, stated change not applied): as the sequence (P63138 25-474 limits assumed, stated change not applied) above
T2 sequence (P18508 with tags, fused parts or gaps INS375LLRMFSFK): as the sequence (P18508 with tags, fused parts or gaps INS375LLRMFSFK) above
T4 sequence (P62813 28-455 L290T/T310A): as the sequence (P62813 28-455 L290T/Y308A) above, with A281Y, T283A counted along it
T4 sequence (P63138 25-474 limits assumed, stated change not applied): as the sequence (P63138 25-474 limits assumed, stated change not applied) above
T4 sequence (P18508 with tags, fused parts or gaps INS375LLRMFSFK): as the sequence (P18508 with tags, fused parts or gaps INS375LLRMFSFK) above
T3 sequence (P62813 28-455 L290T/P304A): as the sequence (P62813 28-455 L290T/Y308A) above, with P277A, A281Y counted along it
T3 sequence (P63138 25-474 limits assumed, stated change not applied): as the sequence (P63138 25-474 limits assumed, stated change not applied) above
T3 sequence (P18508 with tags, fused parts or gaps INS375LLRMFSFK): as the sequence (P18508 with tags, fused parts or gaps INS375LLRMFSFK) above
T7 sequence (P62813 28-455 L290T): as the sequence (P62813 28-455 L290T/Y308A) above, with A281Y counted along it
T7 sequence (P63138 25-474 limits assumed, stated change not applied): as the sequence (P63138 25-474 limits assumed, stated change not applied) above
T7 sequence (P18508 with tags, fused parts or gaps INS375LLRMFSFK): as the sequence (P18508 with tags, fused parts or gaps INS375LLRMFSFK) above
T9 sequence (P62813 28-455 L290T/V306W): as the sequence (P62813 28-455 L290T/Y308A) above, with V279W, A281Y counted along it
T9 sequence (P63138 25-474 limits assumed, stated change not applied): as the sequence (P63138 25-474 limits assumed, stated change not applied) above
T9 sequence (P18508 with tags, fused parts or gaps INS375LLRMFSFK): as the sequence (P18508 with tags, fused parts or gaps INS375LLRMFSFK) above
T11 sequence (P62813 28-455, stated change not applied): as the sequence (P62813 28-455 L290T/Y308A) above, with T263L, A281Y counted along it
T11 sequence (P63138 25-474 limits assumed, stated change not applied): as the sequence (P63138 25-474 limits assumed, stated change not applied) above
T11 sequence (P18508 with tags, fused parts or gaps INS375LLRMFSFK): as the sequence (P18508 with tags, fused parts or gaps INS375LLRMFSFK) above

For CN1C(=O)CN=C(c2ccccc2)c2cc(Cl)ccc21 [DZ, diazepam], the DZ hill slope [1] was 0.97, the “ΔΔGDZ (DZ's energetic contribution to pore gating, ΔG1 − ΔG0)” value (“ΔΔGDZ” for short) [1] was −0.44 ± 0.08 (4) kcal/mol and the DZ hill slope [2] was 0.61. The “ΔΔGDZ” value [2] was −0.45 ± 0.04 (5) kcal/mol, the DZ hill slope [3] was 1.24 and the “ΔΔGDZ” value [3] was −0.46 ± 0.20 (5) kcal/mol. The DZ hill slope [4] was 1.42, the “ΔΔGDZ” value [4] was −0.38 ± 0.04 (6) kcal/mol and the DZ hill slope [5] was 0.98. The “dV279A (factor by which DZ binding influences channel opening)” value [5] was 0.20, the “ΔΔGDZ” value [5] was −1.11 ± 0.30 (5) kcal/mol and the DZ hill slope [6] was 1.14. The “ΔΔGDZ” value [6] was −0.42 ± 0.07 (4) kcal/mol, the DZ hill slope [7] was 1.10 and the “ΔΔGDZ” value [7] was −0.31 ± 0.04 (5) kcal/mol. For the same molecule, the DZ hill slope [8] was 0.58, the “ΔΔGDZ” value [8] was −0.52 ± 0.02 (3) kcal/mol and the DZ hill slope [9] was 0.90. The “ΔΔGDZ” value [9] was −0.53 ± 0.10 (3) kcal/mol, the “DZ potentiation of GABA-evoked peak current responses” value ([10]; V279A vs wild-type, 1 μM DZ, EC20-25 (30 μM) or EC100 GABA) was “to a greater extent in V279A than in wild-type receptors” and the “DZ potentiation of currents evoked with a saturating concentration of GABA” value ([10]; V279A, 1 μM DZ, EC100 GABA 3–30 mM) was “potentiates V279A currents evoked with a saturating concentration of GABA”. The Kd ([11]; read-out: KD (dissociation constant for DZ)) was 180 nM.

NCCCC(=O)O [GABA] was tested, and the “c (factor by which GABA binding influences channel opening)” value [11] was 0.0031.

For CNC(=O)c1cc2c(cn1)[nH]c1ccccc12 [FG-7142], the “Effect of FG-7142 on responses to ~EC20-25 GABA” value [12] was “reduced” and the “Effect of FG-7142 on responses to ~EC20-25 GABA” value ([10]; V279A, 30 μM GABA + 1 μM FG-7142, compared with WT) was “to a slightly lesser extent in V279A”.

With picrotoxin [PTX] the “IPTX /IGABA-max (ratio of PTX-sensitive to maximal GABA-evoked current amplitude)” value ([1]; L9'T/K278A, 1 mM PTX, saturating GABA, mean ± SD) was 0.20 ± 0.06 (5), the “IPTX /IGABA-max (ratio of PTX-sensitive to maximal GABA-evoked current amplitude)” value ([2]; L9'T/L276A, 1 mM PTX, saturating GABA, mean ± SD) was 0.22 ± 0.09 (4) and the “IPTX /IGABA-max (ratio of PTX-sensitive to maximal GABA-evoked current amplitude)” value ([3]; L9'T/P277A, 1 mM PTX, saturating GABA, mean ± SD) was 0.45 ± 0.03 (3). For the same molecule, the “IPTX /IGABA-max (ratio of PTX-sensitive to maximal GABA-evoked current amplitude)” value ([4]; L9'T/T283A, 1 mM PTX, saturating GABA, mean ± SD) was 0.11 ± 0.03 (5), the “IPTX /IGABA-max (ratio of PTX-sensitive to maximal GABA-evoked current amplitude)” value ([5]; L9'T/V279A, 1 mM PTX, saturating GABA, mean ± SD) was 0.17 ± 0.04 (4) and the “IPTX /IGABA-max (ratio of PTX-sensitive to maximal GABA-evoked current amplitude)” value ([6]; L9'T/Y281A, 1 mM PTX, saturating GABA, mean ± SD) was 0.25 ± 0.07 (5). The “IPTX /IGABA-max (ratio of PTX-sensitive to maximal GABA-evoked current amplitude)” value ([7]; L9'T, 1 mM PTX, saturating GABA, mean ± SD (# oocytes)) was 0.36 ± 0.04 (5), the “IPTX /IGABA-max (ratio of PTX-sensitive to maximal GABA-evoked current amplitude)” value ([8]; L9'T/V279D, 1 mM PTX, saturating GABA, mean ± SD) was 0.02 ± 0.005 (3) and the “IPTX /IGABA-max (ratio of PTX-sensitive to maximal GABA-evoked current amplitude)” value ([9]; L9'T/V279W, 1 mM PTX, saturating GABA, mean ± SD) was 0.16 ± 0.05 (2).
